{"source": "PubChem BioAssay (NCI)", "test_in_all_cases": "NCI anticancer screen, dose series, 384-well format", "key": {"HCT-116 colon": {"tested_on": "HCT-116 colon"}, "SK-MEL-28 melanoma": {"tested_on": "SK-MEL-28 melanoma"}, "SF-268 CNS": {"tested_on": "SF-268 CNS"}, "MDA-MB-435 melanoma": {"tested_on": "MDA-MB-435 melanoma"}, "SNB-75 CNS": {"tested_on": "SNB-75 CNS"}, "HOP-62 NSCLC": {"tested_on": "HOP-62 NSCLC"}, "OVCAR-4 ovarian": {"tested_on": "OVCAR-4 ovarian"}, "NCI/ADR-RES ovarian": {"tested_on": "NCI/ADR-RES ovarian"}, "SN12C renal": {"tested_on": "SN12C renal"}, "U251 glioblastoma": {"tested_on": "U251 glioblastoma"}, "NCI-H460 NSCLC": {"tested_on": "NCI-H460 NSCLC"}, "BT-549 breast": {"tested_on": "BT-549 breast"}, "MOLT-4 leukemia": {"tested_on": "MOLT-4 leukemia"}, "OVCAR-5 ovarian": {"tested_on": "OVCAR-5 ovarian"}, "A498 renal": {"tested_on": "A498 renal"}, "MALME-3M melanoma": {"tested_on": "MALME-3M melanoma"}, "RXF 393 renal": {"tested_on": "RXF 393 renal"}, "HT29 colon": {"tested_on": "HT29 colon"}, "SW-620 colon": {"tested_on": "SW-620 colon"}, "UACC-257 melanoma": {"tested_on": "UACC-257 melanoma"}, "NCI-H23 lung": {"tested_on": "NCI-H23 lung"}, "786-0 renal": {"tested_on": "786-0 renal"}, "SNB-19 CNS": {"tested_on": "SNB-19 CNS"}, "NCI-H322M lung": {"tested_on": "NCI-H322M lung"}, "A549 NSCLC": {"tested_on": "A549 NSCLC"}, "SR leukemia": {"tested_on": "SR leukemia"}, "EKVX NSCLC": {"tested_on": "EKVX NSCLC"}, "SK-MEL-2 melanoma": {"tested_on": "SK-MEL-2 melanoma"}, "HCT-15 colon": {"tested_on": "HCT-15 colon"}, "NCI-H226 lung": {"tested_on": "NCI-H226 lung"}, "TK-10 renal": {"tested_on": "TK-10 renal"}, "NCI-H522 lung": {"tested_on": "NCI-H522 lung"}, "UACC-62 melanoma": {"tested_on": "UACC-62 melanoma"}, "COLO 205 colon": {"tested_on": "COLO 205 colon"}, "HOP-92 NSCLC": {"tested_on": "HOP-92 NSCLC"}, "MCF7 breast": {"tested_on": "MCF7 breast"}, "K-562 leukemia": {"tested_on": "K-562 leukemia"}, "UO-31 renal": {"tested_on": "UO-31 renal"}, "PC-3 prostate": {"tested_on": "PC-3 prostate"}, "LOX IMVI melanoma": {"tested_on": "LOX IMVI melanoma"}, "SK-MEL-5 melanoma": {"tested_on": "SK-MEL-5 melanoma"}, "M14 melanoma": {"tested_on": "M14 melanoma"}, "MDA-MB-468 breast": {"tested_on": "MDA-MB-468 breast"}, "SK-OV-3 ovarian": {"tested_on": "SK-OV-3 ovarian"}, "OVCAR-3 ovarian": {"tested_on": "OVCAR-3 ovarian"}, "MDA-MB-231 breast": {"tested_on": "MDA-MB-231 breast"}, "KM12 colon": {"tested_on": "KM12 colon"}}, "note": "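At the GI50, growth is halved. TGI: concentration producing complete growth inhibition.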"}
{"molecule": "NS(=O)(=O)NCCNc1nonc1C(=Nc1ccc(F)c(Br)c1)NO", "values": [{"measurement": "GI50", "setting": "HCT-116 colon", "result": 36.6, "unit": "µM"}, {"measurement": "TGI", "setting": "HCT-116 colon", "result": "> 100", "unit": "µM"}, {"measurement": "GI50", "setting": "SK-MEL-28 melanoma", "result": 42.7, "unit": "µM"}, {"measurement": "TGI", "setting": "SK-MEL-28 melanoma", "result": "> 100", "unit": "µM"}, {"measurement": "GI50", "setting": "SF-268 CNS", "result": 33.9, "unit": "µM"}, {"measurement": "TGI", "setting": "SF-268 CNS", "result": "> 100", "unit": "µM"}, {"measurement": "GI50", "setting": "MDA-MB-435 melanoma", "result": 42.5, "unit": "µM"}, {"measurement": "TGI", "setting": "MDA-MB-435 melanoma", "result": "> 100", "unit": "µM"}, {"measurement": "GI50", "setting": "SNB-75 CNS", "result": 21.4, "unit": "µM"}, {"measurement": "TGI", "setting": "SNB-75 CNS", "result": 60.2, "unit": "µM"}, {"measurement": "GI50", "setting": "HOP-62 NSCLC", "result": 39.9, "unit": "µM"}, {"measurement": "TGI", "setting": "HOP-62 NSCLC", "result": "> 100", "unit": "µM"}, {"measurement": "GI50", "setting": "OVCAR-4 ovarian", "result": 21.4, "unit": "µM"}, {"measurement": "TGI", "setting": "OVCAR-4 ovarian", "result": 72.5, "unit": "µM"}, {"measurement": "GI50", "setting": "NCI/ADR-RES ovarian", "result": "> 100", "unit": "µM"}, {"measurement": "TGI", "setting": "NCI/ADR-RES ovarian", "result": "> 100", "unit": "µM"}, {"measurement": "GI50", "setting": "SN12C renal", "result": 35.2, "unit": "µM"}, {"measurement": "TGI", "setting": "SN12C renal", "result": "> 100", "unit": "µM"}, {"measurement": "GI50", "setting": "U251 glioblastoma", "result": 33.9, "unit": "µM"}, {"measurement": "TGI", "setting": "U251 glioblastoma", "result": "> 100", "unit": "µM"}, {"measurement": "GI50", "setting": "NCI-H460 NSCLC", "result": 27.4, "unit": "µM"}, {"measurement": "TGI", "setting": "NCI-H460 NSCLC", "result": 73, "unit": "µM"}, {"measurement": "GI50", "setting": "BT-549 breast", "result": 5.97, "unit": "µM"}, {"measurement": "TGI", "setting": "BT-549 breast", "result": "> 56.3", "unit": "µM"}, {"measurement": "GI50", "setting": "MOLT-4 leukemia", "result": 15.9, "unit": "µM"}, {"measurement": "TGI", "setting": "MOLT-4 leukemia", "result": 29.8, "unit": "µM"}, {"measurement": "GI50", "setting": "OVCAR-5 ovarian", "result": 49.9, "unit": "µM"}, {"measurement": "TGI", "setting": "OVCAR-5 ovarian", "result": "> 100", "unit": "µM"}, {"measurement": "GI50", "setting": "A498 renal", "result": 4.27, "unit": "µM"}, {"measurement": "TGI", "setting": "A498 renal", "result": "> 80.2", "unit": "µM"}, {"measurement": "GI50", "setting": "MALME-3M melanoma", "result": 30.5, "unit": "µM"}, {"measurement": "TGI", "setting": "MALME-3M melanoma", "result": "> 100", "unit": "µM"}, {"measurement": "GI50", "setting": "RXF 393 renal", "result": 4.11, "unit": "µM"}, {"measurement": "TGI", "setting": "RXF 393 renal", "result": "> 31.6", "unit": "µM"}, {"measurement": "GI50", "setting": "HT29 colon", "result": 41, "unit": "µM"}, {"measurement": "TGI", "setting": "HT29 colon", "result": "> 100", "unit": "µM"}, {"measurement": "GI50", "setting": "SW-620 colon", "result": 42.2, "unit": "µM"}, {"measurement": "TGI", "setting": "SW-620 colon", "result": "> 100", "unit": "µM"}, {"measurement": "GI50", "setting": "UACC-257 melanoma", "result": 28.7, "unit": "µM"}, {"measurement": "TGI", "setting": "UACC-257 melanoma", "result": "> 82.6", "unit": "µM"}, {"measurement": "GI50", "setting": "NCI-H23 lung", "result": 27.1, "unit": "µM"}, {"measurement": "TGI", "setting": "NCI-H23 lung", "result": "> 100", "unit": "µM"}, {"measurement": "GI50", "setting": "786-0 renal", "result": 35.1, "unit": "µM"}, {"measurement": "TGI", "setting": "786-0 renal", "result": "> 100", "unit": "µM"}, {"measurement": "GI50", "setting": "SNB-19 CNS", "result": 42.1, "unit": "µM"}, {"measurement": "TGI", "setting": "SNB-19 CNS", "result": "> 100", "unit": "µM"}, {"measurement": "GI50", "setting": "NCI-H322M lung", "result": 34.2, "unit": "µM"}, {"measurement": "TGI", "setting": "NCI-H322M lung", "result": "> 100", "unit": "µM"}, {"measurement": "GI50", "setting": "A549 NSCLC", "result": 30.9, "unit": "µM"}, {"measurement": "TGI", "setting": "A549 NSCLC", "result": "> 100", "unit": "µM"}, {"measurement": "GI50", "setting": "SR leukemia", "result": 14.6, "unit": "µM"}, {"measurement": "TGI", "setting": "SR leukemia", "result": 28.9, "unit": "µM"}, {"measurement": "GI50", "setting": "EKVX NSCLC", "result": 31.8, "unit": "µM"}, {"measurement": "TGI", "setting": "EKVX NSCLC", "result": "> 100", "unit": "µM"}, {"measurement": "GI50", "setting": "SK-MEL-2 melanoma", "result": 20.1, "unit": "µM"}, {"measurement": "TGI", "setting": "SK-MEL-2 melanoma", "result": 47.1, "unit": "µM"}, {"measurement": "GI50", "setting": "HCT-15 colon", "result": 51.6, "unit": "µM"}, {"measurement": "TGI", "setting": "HCT-15 colon", "result": "> 100", "unit": "µM"}, {"measurement": "GI50", "setting": "NCI-H226 lung", "result": 20.8, "unit": "µM"}, {"measurement": "TGI", "setting": "NCI-H226 lung", "result": "> 84.4", "unit": "µM"}, {"measurement": "GI50", "setting": "TK-10 renal", "result": 28.8, "unit": "µM"}, {"measurement": "TGI", "setting": "TK-10 renal", "result": "> 89.2", "unit": "µM"}, {"measurement": "GI50", "setting": "NCI-H522 lung", "result": 16.5, "unit": "µM"}, {"measurement": "TGI", "setting": "NCI-H522 lung", "result": 47.7, "unit": "µM"}, {"measurement": "GI50", "setting": "UACC-62 melanoma", "result": 24.5, "unit": "µM"}, {"measurement": "TGI", "setting": "UACC-62 melanoma", "result": "> 100", "unit": "µM"}, {"measurement": "GI50", "setting": "COLO 205 colon", "result": 21.8, "unit": "µM"}, {"measurement": "TGI", "setting": "COLO 205 colon", "result": "> 60.6", "unit": "µM"}, {"measurement": "GI50", "setting": "HOP-92 NSCLC", "result": 29.6, "unit": "µM"}, {"measurement": "TGI", "setting": "HOP-92 NSCLC", "result": "> 89.5", "unit": "µM"}, {"measurement": "GI50", "setting": "MCF7 breast", "result": 38.8, "unit": "µM"}, {"measurement": "TGI", "setting": "MCF7 breast", "result": "> 100", "unit": "µM"}, {"measurement": "GI50", "setting": "K-562 leukemia", "result": 27.8, "unit": "µM"}, {"measurement": "TGI", "setting": "K-562 leukemia", "result": "> 100", "unit": "µM"}, {"measurement": "GI50", "setting": "UO-31 renal", "result": 36, "unit": "µM"}, {"measurement": "TGI", "setting": "UO-31 renal", "result": "> 100", "unit": "µM"}, {"measurement": "GI50", "setting": "PC-3 prostate", "result": 6.11, "unit": "µM"}, {"measurement": "TGI", "setting": "PC-3 prostate", "result": "> 100", "unit": "µM"}, {"measurement": "GI50", "setting": "LOX IMVI melanoma", "result": 34.5, "unit": "µM"}, {"measurement": "TGI", "setting": "LOX IMVI melanoma", "result": "> 100", "unit": "µM"}, {"measurement": "GI50", "setting": "SK-MEL-5 melanoma", "result": 35.9, "unit": "µM"}, {"measurement": "TGI", "setting": "SK-MEL-5 melanoma", "result": "> 92.6", "unit": "µM"}, {"measurement": "GI50", "setting": "M14 melanoma", "result": 38.9, "unit": "µM"}, {"measurement": "TGI", "setting": "M14 melanoma", "result": "> 100", "unit": "µM"}, {"measurement": "GI50", "setting": "MDA-MB-468 breast", "result": 14.6, "unit": "µM"}, {"measurement": "TGI", "setting": "MDA-MB-468 breast", "result": 33.1, "unit": "µM"}, {"measurement": "GI50", "setting": "SK-OV-3 ovarian", "result": 10.9, "unit": "µM"}, {"measurement": "TGI", "setting": "SK-OV-3 ovarian", "result": "> 100", "unit": "µM"}, {"measurement": "GI50", "setting": "OVCAR-3 ovarian", "result": 24, "unit": "µM"}, {"measurement": "TGI", "setting": "OVCAR-3 ovarian", "result": 76.8, "unit": "µM"}, {"measurement": "GI50", "setting": "MDA-MB-231 breast", "result": 67.2, "unit": "µM"}, {"measurement": "TGI", "setting": "MDA-MB-231 breast", "result": "> 100", "unit": "µM"}, {"measurement": "GI50", "setting": "KM12 colon", "result": 8.9, "unit": "µM"}, {"measurement": "TGI", "setting": "KM12 colon", "result": "> 100", "unit": "µM"}]}
